Reference: US6087118A, “Method for diagnosing alzheimer's disease” (priority 1999, dated 2000)
“Also recorded” adds a separate entry of the source.

Key:
[1] = system: K+ channels in human platelets; test: Ionomycin-stimulated 86Rb+ efflux from perfused platelets; format: cell-based; conditions: for Effect on ionomycin-stimulated 86Rb+ efflux, pooled data (FIG. 3a) / Inhibition of ionomycin-stimulated 86Rb+ efflux in 9 of 11 control subjects / Inhibition of ionomycin-stimulated 86Rb+ efflux in two control subjects: control subjects; for Effect on ionomycin-stimulated 86Rb+ efflux, pooled data (FIG. 3a) / Effect on ionomycin-stimulated 86Rb+ efflux, pooled data (FIG. 3b): n=11; for Effect on ionomycin-stimulated 86Rb+ efflux, pooled data (FIG. 3a) / Effect on ionomycin-stimulated 86Rb+ efflux, pooled data (FIG. 3b) / Inhibition in controls (%) of ionomycin-stimulated 86Rb+ efflux / Inhibition in Alzheimer's disease (%) of ionomycin-stimulated 86Rb+ efflux: ionomycin 1 μM, apamin 100 nM, charybdotoxin 300 nM; for Effect on ionomycin-stimulated 86Rb+ efflux, pooled data (FIG. 3a): P<0.0001; for Inhibition of ionomycin-stimulated 86Rb+ efflux in 9 of 11 control subjects: the 9 of 11 that responded; for Inhibition of ionomycin-stimulated 86Rb+ efflux in two control subjects: the other 2 of 11 (minimal effects); for Inhibition of ionomycin-stimulated 86Rb+ efflux in 8 of 11 patients with AD: 8 of 11 (minimal effects); for Effect on ionomycin-stimulated 86Rb+ efflux, pooled data (FIG. 3b): patients with Alzheimer's disease, P=0.883; for Inhibition in controls (%) of ionomycin-stimulated 86Rb+ efflux: platelets of age- and sex-matched controls; for Inhibition in controls (%) of ionomycin-stimulated 86Rb+ efflux / Inhibition in Alzheimer's disease (%) of ionomycin-stimulated 86Rb+ efflux: median (interquartile range); for Inhibition in Alzheimer's disease (%) of ionomycin-stimulated 86Rb+ efflux: platelets of patients with AD
Protocol: (§1) Platelet perfusion^17. Blood was drawn by venepuncture and anticoagulated with acid-citratedextrose (ACD). Platelets were prepared by centrifugation within an hour of venesection and incubated with ^86 Rb^+ for 2 h. The platelet suspension (2.5×10^7 platelets per ml) was then injected into perfusion chambers, where the cells settled and became immobilized on inert filters (Millipore). The platelets were then continuously perfused with Krebs solution, to allow them to stabilize for 20 min before the start of each experiment. The perfusion buffer was then changed for 5 min to Krebs solution containing thrombin (0.3 IU/ml) or ionomycin (1 μM), after which the perfusion was switched to the original solution and continued for another 20 min. From 0 to 10 min after the addition of thrombin or ionomycin the perfusate was collected at 1-min intervals and thereafter at 2-min intervals. The solutions used for perfusion were bubbled with 95% O2 and 5% CO2 throughout the experiment (pH 7.4). At the end of the experiment the polycarbonate filters were retrieved and placed in scintillation vials, to which 3.5 ml of Aquasafe 500 scintillation fluid was added. The radioactivity in the perfusates and filters was determined by liquid scintillation counting in a Beckmann LS 6000 SE counter and the loss of radioactivity from the cells was calculated. The amount of ^86 Rb^+ (pmol) in each fraction of perfusate collected was determined using the specific activity of the isotope. The radioactivity was measured in each fraction and the results were plotted as the cumulative efflux of ^86 Rb^+ against time.
(§2) Buffers and drucas. ACD contained citric acid (15 g), trisodium citrate (25 g), and dextrose (20 g) in 1 l of distilled water. Krebs buffer contained (mmol/l): NaCl (119); KCl (4.6); CaCl2 (1.5); NaH2 PO4 (1.2); MgCl2 (1.2); NaHCO3 (15); and glucose (11). Apamin, charybdotoxin, α-dendrotoxin, iberiotoxin, ionomycin, and human thrombin were purchased from Sigma Chemical Company, Poole, Dorset. ^86 RbCl was purchased from Amersham International plc (Amersham, Bucks).
(§3) Thrombin and ionomycin. Solutions of thrombin were prepared freshly in distilled water for each experiment and further diluted to a concentration of 0.3 IU/ml in Krebs solution. Stock solutions of ionomycin (10 mM in dimethylsulphoxide) were prepared and stored in aliquots at 4° C. On the day of the experiment ionomycin was further diluted in Krebs solution to a concentration of 1 μM.
(§4) Apamin, charybdotoxin, iberiotoxin, and α-dendrotoxin. Apamin, charybdotoxin, iberiotoxin, and α-dendrotoxin were […]. Apamin, (100 nM), charybdotoxin (300 nM), iberiotoxin (300 nM), and α-dendrotoxin (200 nM) were reconstituted in distilled water and stored in aliquots at -20° C. On the day of the experiment the toxins were further diluted in Krebs solution. Apamin was pre-incubated with the platelets (added at time -20 min) and charybdotoxin, iberiotoxin, and α-dendrotoxin were added with thrombin (at 0 min) for a period of 5 min.
(§5) Data Dresentation and analysis. The results in FIGS. 1-3 are shown as cumulative effluxes of ^86 Rb^+ from 0 to 14 min. The data are shown as means±SEMs (n=number of experiments with platelets obtained from different volunteers). The efflux data were analyzed using analysis of variance with repeated measures.
(§6) K^+ channel fluxes. Platelets were prepared and their K^+ channel fluxes studied as described by DeSilva, H. A. et al^17, by loading fresh platelets with ^86 Rb^+ (used as a radioactive analogue of K^+)^18,19 and stimulating ^86 Rb^+ efflux with thrombin and ionomycin.

[2] = system: K+ channels in human platelets; test: Thrombin-stimulated 86Rb+ efflux from perfused platelets; format: cell-based; conditions: for Effect on thrombin-stimulated 86Rb+ efflux, pooled data (FIGS. 1a, 2a) / Inhibition of thrombin-stimulated 86Rb+ efflux in 8 of 11 control subjects / Inhibition of thrombin-stimulated 86Rb+ efflux in the other three control subjects: control subjects; for Effect on thrombin-stimulated 86Rb+ efflux, pooled data (FIGS. 1a, 2a): n=11, P<0.0001; for Effect on thrombin-stimulated 86Rb+ efflux, pooled data (FIGS. 1a, 2a) / Effect on thrombin-stimulated 86Rb+ efflux, pooled data (FIGS. 1b, 2b) / Inhibition in controls (%) of thrombin-stimulated 86Rb+ efflux / Inhibition in Alzheimer's disease (%) of thrombin-stimulated 86Rb+ efflux: thrombin 0.3 IU/ml, apamin 100 nM, charybdotoxin 300 nM, α-dendrotoxin 200 nM; for Inhibition of thrombin-stimulated 86Rb+ efflux in 8 of 11 control subjects: the 8 of 11 that responded; for Inhibition of thrombin-stimulated 86Rb+ efflux in the other three control subjects: the other 3 of 11 (minimal effects); for Inhibition of thrombin-stimulated 86Rb+ efflux in 9 of 12 patients with AD: 9 of 12 (minimal effects); for Inhibition of thrombin-stimulated 86Rb+ efflux in the other three patients with AD: the other 3 of 12; for Effect on thrombin-stimulated 86Rb+ efflux, pooled data (FIGS. 1b, 2b): patients with Alzheimer's disease, n=12; for Inhibition in controls (%) of thrombin-stimulated 86Rb+ efflux: platelets of age- and sex-matched controls; for Inhibition in controls (%) of thrombin-stimulated 86Rb+ efflux / Inhibition in Alzheimer's disease (%) of thrombin-stimulated 86Rb+ efflux: median (interquartile range); for Inhibition in Alzheimer's disease (%) of thrombin-stimulated 86Rb+ efflux: platelets of patients with AD
Protocol: as §1, §2, §3, §4, §5, §6

sodium/potassium pump = test: Uptake of 86Rb+ by platelets; format: cell-based, human; conditions: unpublished observations of de Silva & Aronson

Row | Molecule | Effect on ionomycin-stimulated 86Rb+ efflux, pooled data (FIG. 3a) [1] | Inhibition of ionomycin-stimulated 86Rb+ efflux in 9 of 11 control subjects [1] | Inhibition of ionomycin-stimulated 86Rb+ efflux in two control subjects [1] | Inhibition of ionomycin-stimulated 86Rb+ efflux in 8 of 11 patients with AD [1] | Effect on ionomycin-stimulated 86Rb+ efflux, pooled data (FIG. 3b) [1] | Inhibition in controls (%) of ionomycin-stimulated 86Rb+ efflux ([1]; iberiotoxin 300 nM) | Inhibition in Alzheimer's disease (%) of ionomycin-stimulated 86Rb+ efflux ([1]; iberiotoxin 300 nM) | Effect on thrombin-stimulated 86Rb+ efflux, pooled data (FIGS. 1a, 2a) [2] | Inhibition of thrombin-stimulated 86Rb+ efflux in 8 of 11 control subjects [2] | Inhibition of thrombin-stimulated 86Rb+ efflux in the other three control subjects [2] | Inhibition of thrombin-stimulated 86Rb+ efflux in 9 of 12 patients with AD [2] | Inhibition of thrombin-stimulated 86Rb+ efflux in the other three patients with AD [2] | Effect on thrombin-stimulated 86Rb+ efflux, pooled data (FIGS. 1b, 2b) [2] | Inhibition in controls (%) of thrombin-stimulated 86Rb+ efflux [2] | Inhibition in Alzheimer's disease (%) of thrombin-stimulated 86Rb+ efflux [2] | other results
1 | CC(C)C[C@@H]1NC(=O)[C@H](C)NC(=O)[C@H]([C@@H](C)O)NC(=O)[C@H](CCC(=O)O)NC(=O)[C@@H]2CCCN2C(=O)[C@H](C)NC(=O)[C@H](CCCCN)NC(=O)[C@@H]2CSSC[C@@H](C(=O)N[C@@H](CCC(N)=O)C(=O)N[C@@H](CCC(N)=O)C(=O)N[C@@H](Cc3cnc[nH]3)C(N)=O)NC(=O)[C@H](CCCNC(=N)N)NC(=O)[C@H](CCCNC(=N)N)NC(=O)[C@H](C)NC(=O)[C@H](CSSC[C@H](N)C(=O)N[C@@H](CC(N)=O)C(=O)N2)NC1=O [Apamin] | inhibited | at least 18% | less than 12% | less than 12% | no significant effect | 30 (20-31) % | 1 (0-20) % | inhibited | at least 18% | less than 10% | less than 10% | at least 16% | no significant effect | 26 (20-27) % | 0 (0-0) % | Effect on ionomycin-stimulated 86Rb+ efflux, pooled data (FIG. 3a) ([1]; listed as apamin): significant reductions; Effect on ionomycin-stimulated 86Rb+ efflux, pooled data (FIG. 3b) ([1]; listed as apamin): minimal effects; Effect on thrombin-stimulated 86Rb+ efflux, pooled data (FIGS. 1a, 2a) ([2]; listed as apamin): significant reductions; Effect on thrombin-stimulated 86Rb+ efflux, pooled data (FIGS. 1b, 2b) ([2]; listed as apamin): neither apamin nor charybdotoxin caused significant reductions
2 | C[C@@H]1O[C@@H](O[C@H]2C[C@@H](O)[C@]3(CO)[C@H]4[C@H](O)C[C@]5(C)[C@@H](C6=CC(=O)OC6)CC[C@]5(O)[C@@H]4CC[C@]3(O)C2)[C@H](O)[C@H](O)[C@H]1O [ouabain] | – | – | – | – | – | – | – | – | – | – | – | – | – | – | – | Share of 86Rb+ uptake in platelets inhibitable by ouabain (sodium/potassium pump): over 90%
3 | charybdotoxin | inhibited; also recorded: significant reductions | ≥ 22% | less than 12% | less than 12% | no significant effect; also recorded: minimal effects | 28 (20-34) % | 4 (1-26) % | inhibited; also recorded: significant reductions | ≥ 16% | less than 10% | less than 10% | at least 16% | no significant effect; also recorded: neither apamin nor charybdotoxin caused significant reductions | 22 (18-29) % | 0 (0-4) % | –
4 | iberiotoxin (QFTDVDCSVSKECWSVCKDLFGVDRGKCMGKKCRCYQ; UniProt P24663 1-37, looked up) [purchased from Sigma] | – | – | – | – | – | 2 (0-3) % | 0 (0-4) % | – | – | – | – | – | – | – | – | Effect on ionomycin-stimulated effluxes in platelets from any individual ([1]; patients with AD and controls, iberiotoxin 300 nM): no effect
5 | α-dendrotoxin | – | – | – | – | – | – | – | inhibited | – | – | – | – | inhibited | 26 (20-29) % | 19 (18-27) % | –
